According to patent US6043386A, “Non-calcemic, antiproliferative, transcriptionally active 24-fluorinated hybrid analogs of 1α,-25-dihydroxy vitamin D3” (John Hopkins University, priority 1999, dated 2000):
Each block holds one compound with its values, some of them ahead of it.

What was measured:
[1] = test system: murine keratinocytes; experiment: in vitro antiproliferative activity in murine keratinocytes (FIG. 1); format: cell-based; settings: for antiproliferative activities: 1α,3β vs. 1β,3α diastereomers; for antiproliferative activity relative to 1,25D3: even at physiologically relevant 7 nM concentrations
Method: Each of these new hybrid analogs (Structures 3 and 4 of Scheme I) is evaluated initially for in vitro antiproliferative activity in murine keratinocytes, using the protocol described in Posner et al., J. Med. Chem. 1992, 35, pp. 3280-3287. The procedure utilized is described as follows:
(§1) Murine B16 malignant melanoma cells are grown and propagated in RPMI medium supplemented with 10% fetal bovine serum, L-glutamine, penicillin, and streptomycin and incubated at 37° C. in 5% CO2. For proliferation studies, cells are washed with PBS, trypsinized, and suspended in 8 ml of supplemented RPMI medium. The cell density is then determined using a hemacytometer and cells are resuspended in RPMI at 10,000 cells/cm^3. One ml of cell suspension (10,000 cells) is added to each well of a Falcon 24 Well Flat Bottom Tissue Culture Plate (Becton-Dickinson, Lincoln Park, N.J.). Plates are incubated for 24 hours to allow for cell attachment. The medium is then removed and replaced with fresh RPMI medium containing either 0.4% solvent (isopropanol) or vitamin D analog at concentrations ranging from 1-1000 nM in triplicate. When control wells near confluence, cells are washed with PBS, trypsinized, and suspended in 10 ml of Isoton II Coulter Balanced EIectrolyte Solution in FISHERbrand Dilu-Vial cuvettes. Cell number is then determined for each well as an average of two readings on a ZM Coulter Counter. Results are expressed as the average cell number for each vitamin D analog treatment group divided by the intital cell number (N/N0). The average standard deviation of the N/N0 cell number measurements was 0.21 in FIG. 1 and 2.1 in FIG. 2.

[2] = test system: vitamin D receptor; experiment: in vitro vitamin D receptor-mediated transcriptional activity in ROS 17/2.8 cells (growth hormone reporter); format: cell-based; settings: 48 h, rat osteosarcoma ROS 17/2.8 cells, vitamin D responsive element of human osteocalcin gene, 2 days, read-out: ED50 (transcriptional potency)
Method: The procedure utilized is described as follows:
Transfections and transcriptional activity of the analogs.
Rat osteosarcoma ROS 17/2.8 cells are maintained in 50% Dulbecco's modified Eagle medium (DMEM) and 50% F12 nutrient mixture supplemented with 10% fetal bovine serum. Forty eight hours before transfections, the cells are plated in 35-mm dishes at a density of 10^5 /dish in DMEM and 10% fetal bovine serum. ROS 17/2.8 cells are transfected with 2 μg of plasmid containing the vitamin D responsive element from the human osteocalcin gene ([…]) attached to the thymidine kinase promoter/growth hormone fusion gene. […] Medium samples for measurements of reporter gene expression (growth hormone) are collected 2 days after transfection. Growth hormone is measured by a radioimmunoassay as described by the manufacturer (Nichols Institute, San Juan Capistrano, Calif.).

[3] = test system: Murine B16 malignant melanoma cells; experiment: Antiproliferative assays using malignant melanoma cells (FIG. 2); format: cell-based; settings: even at 1 nM concentration
Method: Antiproliferative assays using malignant melanoma cells
as §1, with “The average standard deviation of the N/N0 cell number measurements was 0.21 in FIG. 1 and 2.1 in FIG. 2.” left out

[4] = test system: Male F344 rats; experiment: Determination of urinary calcium levels / hypercalcemic effects in vivo (FIG. 3); parameters: species or system rat; settings: 1 microgram per kg per os, seven consecutive days
Method: Because of their high antiproliferative and transcriptional activities in vitro, fluorinated hybrid analogs, Structures 3b and 4b, are evaluated for hypercalcemic effects in vivo. The procedure utilized is described as follows:
Determination of urinary calcium levels.
(§2) Male F344 rats (150 g) are housed individually in glass metabolism cages and received food and water ad libitum. After several days acclimation, rats receive 1 microgram per kg body weight of test compound per os for seven consecutive days in 150 microliters of propylene glycol/0.05M Na2 HPO4 (80:20). Urine samples, which are collected on ice, were centrifuged at 650×g for 10 min, adjusted to pH 6.0 as necessary, and assayed for calcium content spectrophotometrically at 575 nm using reagents and standards from Sigma Calcium Kit #587.

[5] = body weight gain in rats treated daily for one week; format: in vivo, rat; settings: 1 microgram per kg per os, seven consecutive days
Method: as §2

SMILES: C=C1/C(=C\C=C2/CCC[C@]3(C)C([C@H](C)CCC(F)(F)C(C)(C)O)=CC[C@@H]23)C[C@@H](O)C[C@@H]1CO [Structure 3a]
antiproliferative activities [1]: much less potent

SMILES: C=C1/C(=C\C=C2/CCC[C@]3(C)C([C@H](C)CCC(F)(F)C(O)(CC)CC)=CC[C@@H]23)C[C@@H](O)C[C@@H]1CO [Structure 4a]
antiproliferative activities [1]: much less potent

calcium excretion into the urine [4]: no calcium elevation above control
SMILES: C=C1/C(=C\C=C2/CCC[C@]3(C)C([C@H](C)CCC(F)(F)C(O)(CC)CC)=CC[C@@H]23)C[C@H](O)C[C@H]1CO [Structure 4b]
antiproliferative activities [1]: significant antiproliferative activities
antiproliferative activity relative to 1,25D3 [1]: at least equal to that of 1,25D3
EC50 [2]: 0.05 nM
antiproliferative potency relative to 1,25D3 [3]: more potent antiproliferative agents than 1,25D3
suppression of body weight gain [5]: not observed

SMILES: C=C1/C(=C\C=C2/CCC[C@]3(C)[C@@H]([C@H](C)CCCC(C)(C)O)CC[C@@H]23)C[C@@H](O)C[C@@H]1O [calcitriol, 1α,25-dihydroxy vitamin D3, reference compound]
calcium excretion into the urine [4]: marked excretion of calcium into the urine
suppression of body weight gain [5]: suppression of body weight gain

calcium excretion into the urine [4]: no calcium elevation above control
SMILES: C=C1/C(=C\C=C2/CCC[C@]3(C)C([C@H](C)CCC(F)(F)C(C)(C)O)=CC[C@@H]23)C[C@H](O)C[C@H]1CO [Structure 3b]
antiproliferative activities [1]: significant antiproliferative activities
antiproliferative activity relative to 1,25D3 [1]: at least equal to that of 1,25D3
EC50 [2]: 0.2 nM
antiproliferative potency relative to 1,25D3 [3]: more potent antiproliferative agents than 1,25D3
suppression of body weight gain [5]: not observed
